# According to US10221138B2, “Biaryl derivatives as GPR120 agonists” (LG CHEM, LTD., priority 2013, dated 2019):
# Target: T1, hGPR120 (Homo sapiens, UniProt Q5NUL3)
# T1 construct: expressed in transfected cells; host or cells: CHO-K1
# T1 sequence (Q5NUL3 1-361): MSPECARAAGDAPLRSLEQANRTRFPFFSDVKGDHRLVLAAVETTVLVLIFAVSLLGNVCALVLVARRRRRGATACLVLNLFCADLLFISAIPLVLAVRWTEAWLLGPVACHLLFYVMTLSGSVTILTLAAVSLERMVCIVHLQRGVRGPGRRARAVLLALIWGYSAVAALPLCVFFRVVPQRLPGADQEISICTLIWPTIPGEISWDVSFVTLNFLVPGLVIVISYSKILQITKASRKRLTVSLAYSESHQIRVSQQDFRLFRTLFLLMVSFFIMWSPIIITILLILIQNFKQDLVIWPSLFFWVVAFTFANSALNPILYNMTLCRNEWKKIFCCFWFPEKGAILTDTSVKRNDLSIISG
# Assay: Measurement of activity of GPR120 agonist (cell-based calcium fluorescence assay)
# Conditions: not given
# In short: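 CHO-K1 cells co-expressing Gα16 and hGPR120, plated 18 h, loaded with Calcium 5 dye for 1 h at 37 °C, then given serially diluted agonists (final 0.5% DMSO). Fluorescence increase expressed as relative % of the 1% DMSO-only signal.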
row,EC50 [nM],Compound
1,200 to 2000,"CC(C)Nc1ccccc1-c1cc(F)c(OCCCC(=O)O)c(F)c1 [Example 83, 4-[2,6-difluoro-4-[2-(isopropylamino)phenyl]phenoxy]butanoic Acid]"

# Same assay, conditions: CHO-K1 cells expressing Ga16 and hGPR120, Calcium 5 dye fluorescence; activity class; read-out: EC50
row,Compound,EC50 [nM]
1,"O=C(O)CCCSc1c(F)cc(-c2cccc(OC3CCC3)n2)cc1F [Example 154, 4-[4-(6-cyclobutoxy-pyridin-2-yl)-2,6-difluoro-phenylsulfanyl]-butyric acid]",< 200
2,"O=C(O)CCCCSc1ccc(-c2cccnc2SC2CCCC2)cc1 [Example 258, 5-[4-(2-cyclopentylsulfanyl-pyridin-3-yl)-phenylsulfanyl]-pentanoic acid]",< 200
3,"O=C(O)CCCOc1ccc(-c2cccnc2SC2CCC2)cc1 [Example 48, 4-[4-(2-cyclobutylsulfanyl-pyridin-3-yl)-phenoxy]-butyric acid]",< 200
4,"CC(C)Sc1ncccc1-c1ccc(SCCCC(=O)O)cc1 [Example 148, 4-[4-(2-isopropylsulfanyl-pyridin-3-yl)-phenylsulfanyl]-butyric acid]",< 200
5,"O=C(O)CCCSc1c(F)cc(-c2cccnc2SC2CCCC2)cc1F [Example 147, 4-[4-(2-cyclopentylsulfanyl-pyridin-3-yl)-2,6-difluoro-phenylsulfanyl]-butyric acid]",< 200
6,"O=C(O)CCCSc1ccc(-c2ccccc2NC2CCCC2)cc1 [Example 208, 4-(2′-cyclopentylamino-biphenyl-4-ylsulfanyl)-butyric acid]",< 200
7,"O=C(O)CCCSc1ccc(-c2cc(F)ccc2NC2CCCC2)cc1 [Example 176, 4-(2′-cyclopentylamino-5′-fluoro-biphenyl-4-ylsulfanyl)-butyric acid]",< 200
8,"O=C(O)CCCSc1c(F)cc(-c2cccc(SC3CCCC3)n2)cc1F [Example 159, 4-[4-(6-cyclopentylsulfanyl-pyridin-2-yl)-2,6-difluoro-phenylsulfanyl]-butyric acid]",< 200
9,"O=C(O)CCCSc1ccc(-c2cccnc2SC2CCCC2)cc1F [Example 164, 4-[4-(2-cyclopentylsulfanyl-pyridin-3-yl)-2-fluoro-phenylsulfanyl]-butyric acid]",< 200
10,"CC(C)Oc1ncccc1-c1ccc(SCCCCC(=O)O)cc1 [Example 255, 5-[4-(2-isopropoxy-pyridin-3-yl)-phenylsulfanyl]-pentanoic acid]",200 to 2000
11,"O=C(O)CCCSc1ccc(-c2cccc(SC3CCC3)n2)cc1 [Example 156, 4-[4-(6-cyclobutylsulfanyl-pyridin-2-yl)-phenylsulfanyl]-butyric acid]",< 200
12,"CC(CCC(=O)O)Sc1ccc(-c2cccnc2OC2CCCC2)cc1 (stereo not shown) [Example 199, 4-[4-(2-cyclopentyloxy-pyridin-3-yl)-phenylsulfanyl]-pentanoic acid]",< 200
13,"O=C(O)CCCOc1c(F)cc(-c2cccc(OC3CCC3)n2)cc1F [Example 25, 4-[4-[6-(cyclobutoxy)-2-pyridyl]-2,6-difluoro-phenoxy]butyric acid]",< 200
14,"O=C(O)CCCSc1ccc(-c2cc(F)ccc2OC2CCCC2)cc1F [Example 180, 4-(2′-cyclopentyloxy-3,5′-difluoro-biphenyl-4-ylsulfanyl)-butyric acid]",200 to 2000
15,"Cc1cc(-c2cccnc2SC2CCC2)cc(C)c1OCCCC(=O)O [Example 10, 4-[4-(2-cyclobutylsulfanyl-pyridin-3-yl)-2,6-dimethyl-phenoxy]-butyric acid]",< 200
16,"Cc1cc(-c2cccc(OC3CCC3)n2)ccc1OCCCC(=O)O [Example 26, 4-[4-[6-(cyclobutoxy)-2-pyridyl]-2-methyl-phenoxy]butyric acid]",< 200
17,"CC(C)Oc1ccccc1-c1ccc(OCCCC(=O)O)cc1 [Example 57, 4-(2′-isopropoxy-biphenyl-4-yloxy)-butyric acid]",200 to 2000
18,"Cc1cc(F)c(OC2CCCC2)c(-c2ccc(SCCCC(=O)O)c(F)c2)c1 [Example 195, 4-(2′-cyclopentyloxy-3,3′-difluoro-5′-methyl-biphenyl-4-ylsulfanyl)-butyric acid]",200 to 2000
19,"O=C(O)CCCSc1ccc(-c2cccc(OC3CCC3)n2)cc1 [Example 128, 4-[4-(6-cyclobutoxy-pyridin-2-yl)-phenylsulfanyl]-butyric acid]",< 200
20,"O=C(O)CCCSc1ccc(-c2cccc(SC3CCC3)n2)cc1F [Example 169, 4-[4-(6-cyclobutylsulfanyl-pyridin-2-yl)-2-fluoro-phenylsulfanyl]-butyric acid]",< 200
21,"COc1ccc(-c2ccc(SCCCC(=O)O)c(F)c2)c(OC(C)C)c1 [Example 185, 4-(3-fluoro-2′-isopropoxy-4′-methoxy-biphenyl-4-ylsulfanyl)-butyric acid]",< 200
22,"Cc1ccc(OC2CCCC2)c(-c2ccc(SCCCC(=O)O)cc2)c1 [Example 177, 4-(2′-cyclopentyloxy-5′-methyl-biphenyl-4-ylsulfanyl)-butyric acid]",200 to 2000
23,"CCCSc1ncccc1-c1ccc(OCCCC(=O)O)cc1 [Example 51, 4-[4-(2-propylsulfanyl-pyridin-3-yl)-phenoxy]-butyric acid]",< 200

# Next, values leading:
row,EC50 [nM],Compound
1,200 to 2000,"O=C(O)CCCCOc1c(F)cc(-c2cccnc2OC2CCOCC2)cc1F [Example 241, 5-[2,6-difluoro-4-(2-tetrahydropyran-4-yloxy-3-pyridyl)phenoxy]pentanoic acid]"
2,200 to 2000,"CCCNc1cccc(-c2cc(F)c(OCCCC(=O)O)c(F)c2)c1 [Example 94, 4-[2,6-difluoro-4-[3-(propylamino)phenyl]phenoxy]butanoic acid]"
3,200 to 2000,"O=C(O)CCCOc1c(F)cc(-c2cccc(Nc3ccccc3)n2)cc1F [Example 16, 4-[4-(6-anilino-2-pyridyl)-2,6-difluoro-phenoxy]butyric acid]"
4,< 200,"O=C(O)CCCCSc1c(F)cc(-c2cccnc2OC2CCCC2)cc1F [Example 252, 5-[4-(2-cyclopentyloxy-pyridin-3-yl)-2,6-difluoro-phenylsulfanyl]-pentanoic acid]"
5,> 20000,"CC(C)(C)[Si](C)(C)OC1CCC(Oc2ncccc2-c2cc(F)c(OCCCC(=O)O)c(F)c2)C1 (stereo not shown) [Example 226, 4-(4-{2-[3-(tert-butyl-dimethyl-silanyloxy)-cyclopentyloxy]-pyridin-3-yl}-2,6-difluoro-phenoxy)-butyric acid]"
6,< 200,"O=C(O)CCCOc1c(F)cc(-c2cccc(SC3CCC3)n2)cc1F [Example 20, 4-[4-(6-cyclobutylsulfanyl-2-pyridyl)-2,6-difluoro-phenoxy]butyric acid]"
7,< 200,"O=C(O)CCCOc1c(F)cc(-c2cccc(CC3CCCC3)n2)cc1F [Example 100, 4-[4-[6-(cyclopentylmethyl)-2-pyridyl]-2,6-difluoro-phenoxy]butanoic acid]"
8,200 to 2000,"CC(C)(C)COc1ncccc1-c1cc(F)c(OCCCC(=O)O)c(F)c1 [Example 231, 4-{4-[2-(2,2-dimethy-propoxy)-pyridin-3-yl]-2,6-difluoro-phenoxy}-butyric acid]"
9,200 to 2000,"O=C(O)CCCOc1c(F)cc(-c2cccnc2OC2CC2)cc1F [Example 225, 4-[4-(2-cyclopropoxy-pyridin-3-yl)-2,6-difluoro-phenoxy]-butyric acid]"
10,200 to 2000,"O=C(O)CCCOc1c(F)cc(-c2cccnc2OCc2ccco2)cc1F [Example 220, 4-[2,6-difluoro-4-[2-(2-furylmethoxy)-3-pyridyl]phenoxy]butanoic acid]"
11,200 to 2000,"CC(C)Oc1ncccc1-c1ccc(OCCCCC(=O)O)c(F)c1 [Example 264, 5-[2-fluoro-4-(2-isopropoxy-pyridin-3-yl)-phenoxy]-pentanoic acid]"
12,< 200,"O=C(O)CCCOc1c(F)cc(-c2ccccc2Oc2ccccc2)cc1F [Example 39, 4-(3,5-difluoro-2′-phenoxy-biphenyl-4-yloxy)-butyric acid]"
13,< 200,"O=C(O)CCCOc1c(F)cc(-c2cc(F)ccc2NC2CCCC2)cc1F [Example 96, 4-[4-[2-(cyclopentylamino)-5-fluoro-phenyl]-2,6-difluoro-phenoxy]butanoic acid]"
14,< 200,"CCCNc1ccccc1-c1cc(F)c(OCCCC(=O)O)c(F)c1 [Example 81, 4-[2,6-difluoro-4-[2-(propylamino)phenyl]phenoxy]butanoic acid]"
15,200 to 2000,"O=C(O)CCCCCSc1c(F)cc(-c2cccnc2OC2CCCC2)cc1F [Example 276, 6-[4-(2-cyclopentyloxy-pyridin-3-yl)-2,6-difluoro-phenylsulfanyl]-hexanoic acid]"
16,> 20000,"O=C(O)CCCOc1c(F)cc(-c2cccnc2OCCF)cc1F [Example 32, 4-{2,6-difluoro-4-[2-(2-fluoro-ethoxy)-pyridin-3-yl]-phenoxy}-butyric acid]"
17,200 to 2000,"C=CCOc1ncccc1-c1cc(F)c(OCCCC(=O)O)c(F)c1 [Example 269, 4-[4-(2-allyloxy-pyridin-3-yl)-2,6-difluoro-phenoxy]-butyric acid]"
18,< 200,"CC(C)Sc1ncccc1-c1cc(F)c(OCCCCC(=O)O)c(F)c1 [Example 235, 5-[2,6-difluoro-4-(2-isopropylsulfanyl-3-pyridyl)phenoxy]pentanoic acid]"
19,< 200,"O=C(O)CCCSc1c(F)cc(-c2cccnc2OCC(F)(F)F)cc1F [Example 247, 4-{2,6-difluoro-4-[2-(2,2,2-trifluoro-ethoxy)-pyridin-3-yl]-phenylsulfanyl}-butyric acid]"
